Results published in US20100016298A1, “Theramutein modulators” (priority 2005, published 2010).

These compounds were tested against T1, Ba/F3 cells expressing the p210Bcr-Abl-T315I theramutein (Homo sapiens, UniProt P00519, T315I, cells depend on it) (assay: cellular assay system: growth inhibition (cell count), Ba/F3 T315I cell line). Settings: concentration inhibiting growth of the cell line by 50%, read-out: IC50 activity category, T315I.
T1 construct: IC50 activity category, T315I; T315I cell line; even at 10 μM concentration; fused on or other part: P11274 (Breakpoint cluster region protein)
Assay type: cell-based, murine

Compound | GI50
Fc1cnc(N/N=C/c2ccc(Nc3ccc(-c4ccccn4)c(Cl)c3)cn2)nc1N1CCOCC1 | < 1 µM
O=C(C/C=N/Nc1ncc(F)c(N2CCOCC2)n1)Nc1cccc(C(F)(F)F)c1 | > 10 µM
CN(C)c1cc(O)cc(Nc2ccc(/C=N/Nc3ncc(F)c(N4CCOCC4)n3)nc2)c1 | < 1 µM
Oc1cccc(Nc2cccc(Nc3ccc(/C=N/Nc4ncc(F)c(N5CCOCC5)n4)nc3)c2)c1 | < 1 µM
Fc1cnc(N/N=C/c2ccc(Nc3cccc(-n4ccnc4)c3)cn2)nc1N1CCOCC1 | < 1 µM
Oc1ccccc1/C=N/Nc1ncc(F)c(N2CCOCC2)n1 | < 10 µM
O=C(Nc1cccc(C(F)(F)F)c1)c1cccc(/C=N/Nc2ncc(F)c(N3CCOCC3)n2)n1 | > 10 µM
Cc1cccc(Cl)c1NC(=O)C/C=N/Nc1ncc(F)c(N2CCOCC2)n1 | > 10 µM
Oc1ccc(Br)cc1/C=N/Nc1ncc(F)c(N2CCOCC2)n1 | < 1 µM
Fc1cnc(N/N=C/c2ccc(Nc3cccc(C(F)(F)F)c3)cn2)nc1-c1cncc(C2CC2)c1 | < 10 µM
Cc1cc(Nc2ccc(/C=N/Nc3ncc(F)c(N4CCOCC4)n3)nc2)cc(N2CCNCC2)c1 | < 1 µM

Other lines, results leading:

GI50 | Compound
< 1 µM | Fc1cnc(N/N=C/c2ccccn2)nc1N1CCOCC1
> 10 µM | Cc1ccccc1/C=N/Nc1ncc(F)c(N2CCOCC2)n1
> 10 µM | Cc1cc(Nc2cccc(C(F)(F)F)c2)ccc1/C=N/Nc1ncc(F)c(N2CCOCC2)n1
< 1 µM | Fc1cnc(N/N=C/c2ccc(-c3cccc(C(F)(F)F)c3)cn2)nc1N1CCOCC1
< 1 µM | O=C(Nc1cccc(C(F)(F)F)c1)c1cc(Cl)c(O)c(/C=N\Nc2ncc(F)c(N3CCOCC3)n2)c1
> 10 µM | CC(C(=O)O)c1ccc(Nc2ccc(/C=N/Nc3ncc(F)c(N4CCOCC4)n3)nc2)cc1 (centres unmarked)
< 1 µM | Fc1cnc(N/N=C/c2ccc(Nc3ccc(N4CCOCC4)cc3)cn2)nc1N1CCOCC1
< 1 µM | O=C(Nc1cccc(C(F)(F)F)c1)c1ccc(/C=N/Nc2ncc(F)c(N3CCOCC3)n2)nc1
< 1 µM | O=C(NNc1ncc(F)c(N2CCOCC2)n1)c1ccc(Nc2cccc(C(F)(F)F)c2)cn1
< 1 µM | Fc1cnc(N/N=C/c2ccc(Nc3cccc(C(F)(F)F)c3)cn2)nc1-c1cncc(-c2ccccc2)c1
> 10 µM | Fc1cnc(N/N=C/c2ccccc2)nc1N1CCOCC1
> 10 µM | Cc1ccc(/C=N/Nc2ncc(F)c(N3CCOCC3)n2)cc1
